One assay addresses T1, D(4) dopamine receptor (Homo sapiens, UniProt P21917).
T1 sequence (P21917 whole entry): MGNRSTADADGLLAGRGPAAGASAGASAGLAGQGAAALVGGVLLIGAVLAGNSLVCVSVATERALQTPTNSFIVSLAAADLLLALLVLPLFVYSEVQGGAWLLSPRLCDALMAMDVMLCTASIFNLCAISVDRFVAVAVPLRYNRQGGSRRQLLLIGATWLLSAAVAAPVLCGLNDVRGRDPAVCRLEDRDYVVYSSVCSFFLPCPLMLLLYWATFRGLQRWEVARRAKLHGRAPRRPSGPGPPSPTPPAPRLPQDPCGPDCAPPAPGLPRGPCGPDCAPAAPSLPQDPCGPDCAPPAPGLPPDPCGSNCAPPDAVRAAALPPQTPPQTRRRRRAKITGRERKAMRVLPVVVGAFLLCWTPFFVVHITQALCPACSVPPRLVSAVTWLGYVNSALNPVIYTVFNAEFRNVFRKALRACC
The assay is described as follows: Displacement of [3H]N-methylspiperone from human dopamine D4 receptor expressed in human HEK293 cell membrane for 1 hr by liquid scintillation counting analysis. Format: cell membranes. For orientation: Loss of bound radioactivity is the signal in a displacement assay; it reports binding, not function.

Another assay deals with D(2) dopamine receptor (Homo sapiens, UniProt P14416). Nature of the assay: Displacement of [3H]N-methylspiperone from human dopamine D2 receptor expressed in human HEK293 cell membrane for 1 hr by liquid scintillation counting analysis. Format: cell membranes.
Sequence of D(2) dopamine receptor (P14416 whole entry): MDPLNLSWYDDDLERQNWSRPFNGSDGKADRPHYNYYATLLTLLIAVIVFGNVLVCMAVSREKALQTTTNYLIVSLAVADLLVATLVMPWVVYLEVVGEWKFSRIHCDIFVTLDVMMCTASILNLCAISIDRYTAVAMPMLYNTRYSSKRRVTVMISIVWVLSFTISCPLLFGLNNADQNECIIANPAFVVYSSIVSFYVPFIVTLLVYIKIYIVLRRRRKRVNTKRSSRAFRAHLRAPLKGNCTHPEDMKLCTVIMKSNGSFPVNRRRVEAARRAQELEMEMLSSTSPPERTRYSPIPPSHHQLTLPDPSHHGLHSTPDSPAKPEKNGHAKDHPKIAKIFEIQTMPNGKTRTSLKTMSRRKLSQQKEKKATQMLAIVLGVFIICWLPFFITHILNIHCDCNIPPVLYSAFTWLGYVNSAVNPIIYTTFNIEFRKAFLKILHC
In a further assay the target is D(3) dopamine receptor (Homo sapiens, UniProt P35462). Nature of the assay: biochemical.
Sequence of D(3) dopamine receptor (P35462 whole entry): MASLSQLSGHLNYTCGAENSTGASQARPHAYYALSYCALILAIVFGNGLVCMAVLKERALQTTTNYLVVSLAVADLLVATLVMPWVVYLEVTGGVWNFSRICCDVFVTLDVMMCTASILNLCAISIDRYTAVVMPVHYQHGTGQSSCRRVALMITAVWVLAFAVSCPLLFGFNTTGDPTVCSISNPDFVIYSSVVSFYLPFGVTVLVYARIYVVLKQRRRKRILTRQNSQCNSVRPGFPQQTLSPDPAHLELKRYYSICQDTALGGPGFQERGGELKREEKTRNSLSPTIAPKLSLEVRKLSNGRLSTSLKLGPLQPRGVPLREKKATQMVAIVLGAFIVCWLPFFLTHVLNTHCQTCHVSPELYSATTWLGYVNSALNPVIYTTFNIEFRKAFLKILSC

Where only a bound is given, the exact number is not on record here.

Description for D(3) dopamine receptor: Displacement of [3H]N-methylspiperone from human dopamine D3 receptor expressed in human HEK293 cell membrane for 1 hr by liquid scintillation counting analysis

Consider `O=C(NCCC(CF)N1CCN(c2cccc(Cl)c2Cl)CC1)c1cc2ccccc2o1` (stereo not drawn), for which the Ki was over 3 µM at D(4) dopamine receptor, 7.4 µM at D(2) dopamine receptor and 0.56 µM on D(3) dopamine receptor.

The term Ki denotes the equilibrium dissociation constant of an inhibitor or competing ligand from its target.

The values above are taken from ChEMBL document CHEMBL3286326, “Chiral Resolution and Serendipitous Fluorination Reaction for the Selective Dopamine D3 Receptor Antagonist BAK2-66” (ACS Med Chem Lett, 2014).
